Results reported in patent US20130131075A1, “NEW COMPOUNDS” (Boehringer Ingelheim International GmbH, priority 2009, published 2013).
Each block holds one compound with its values, some of them ahead of it.

Molecular target: T1, cynomolgus BK1-receptor (Macaca fascicularis, UniProt Q3BCU0)
T1 construct: expressed in transfected cells; host or cells: CHO cells (homogenate)
T1 sequence (Q3BCU0 1-352): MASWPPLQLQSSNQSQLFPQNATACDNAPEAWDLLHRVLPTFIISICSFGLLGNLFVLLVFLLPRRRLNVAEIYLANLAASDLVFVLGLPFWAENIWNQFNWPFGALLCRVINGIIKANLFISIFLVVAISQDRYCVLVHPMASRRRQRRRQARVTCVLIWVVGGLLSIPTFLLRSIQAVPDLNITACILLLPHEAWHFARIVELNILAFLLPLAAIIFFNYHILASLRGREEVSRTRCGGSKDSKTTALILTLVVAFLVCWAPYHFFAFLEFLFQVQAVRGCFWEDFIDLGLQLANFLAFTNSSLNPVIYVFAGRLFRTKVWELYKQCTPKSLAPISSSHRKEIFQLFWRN
Test: cynoBK1-receptor binding assay
Conditions: CHO cells expressing cynomolgus BK1-receptor, radioligand kallidine (DesArg10,Leu9); for inhibition at 10 µM: at 10 μgmol/L
How it was run: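 Ki derived by non-linear fitting of concentration-binding curves. Test compound competed against 0.5 to 5.0 nM tritiated kallidine (DesArg10,Leu9) on cynomolgus BK1-CHO cell homogenate (50 to 250 μg protein/assay) for 60-180 minutes at ambient temperature, then filtered. 1.0 μM kallidine (DesArg10) set non-specific binding.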

Ki: 17 nM
Compound: CNc1ncc(C(=O)N[C@@]2(C(=O)NCc3ncc(Nc4ccc(Cl)cc4C(F)(F)F)cc3F)CCOC2)cn1 [(276)]

Ki: 13 nM
Compound: Cn1ncc(C(=O)NC2(C(=O)NCc3ccc(Nc4ccc(F)cc4C(F)(F)F)cn3)CC2)cc1=O [(221)]

Ki: 2.8 nM
inhibition at 10 µM: 99%
Compound: CNc1ncc(C(=O)NC2(C(=O)NCc3ccc(Nc4ccc(Cl)cc4C(F)(F)F)cn3)CC2)cn1 [(145)]

inhibition at 10 µM: 71%
Compound: COC1CC(C(=O)N[C@@]2(C(=O)NCc3ccc(Nc4ccccc4C(F)(F)F)cc3)CCOC2)C1 (stereo partly shown) [(75)]

Ki: 2.8 nM
inhibition at 10 µM: 107%
Compound: Cc1ncc(C(=O)NC2(C(=O)NCc3ccc(Nc4ccc(Br)cc4C(F)(F)F)cn3)CC2)cn1 [(139)]

Ki: 56 nM
inhibition at 10 µM: 96%
Compound: Nc1cncc(C(=O)N[C@@]2(C(=O)NCc3ccc(Nc4ccc(F)cc4C(F)(F)F)cn3)CCOC2)c1 [(157)]

Ki: > 500 nM
inhibition at 10 µM: 77%
Compound: N#Cc1ccc(F)cc1Nc1ccc(CNC(=O)C2(NC(=O)c3cncnc3)CC2)cc1 [(114)]

Ki: 61 nM
Compound: COc1cncc(C(=O)NC2(C(=O)NCc3ccc(Nc4ccc(F)cc4C(F)(F)F)cn3)CC2)c1 [(376)]

Ki: 39 nM
inhibition at 10 µM: 94%
Compound: CC(NC(=O)[C@]1(NC(=O)c2cncnc2)CCOC1)c1ccc(Nc2ccc(F)cc2C(F)(F)F)cn1 (stereo partly shown) [(47)]

Ki: 416 nM
inhibition at 10 µM: 89%
Compound: Nc1cccc(C(=O)N[C@@]2(C(=O)NCc3ccc(Nc4ccccc4C(F)(F)F)cc3)CCOC2)n1 [(72)]

inhibition at 10 µM: 101%
Compound: O=C1CCC(NC(=O)c2cncnc2)(C(=O)NCc2ccc(Nc3ccccc3C(F)(F)F)cn2)C1 (stereo not shown) [(193)]

Ki: 4.6 nM
Compound: Nc1ncc(C(=O)NC2(C(=O)NCc3ccc(Nc4ccc(Cl)cc4C(F)(F)F)cn3)CC2)cc1Br [(378)]

Ki: 27 nM
Compound: Nc1cncc(C(=O)N[C@@]2(C(=O)NCc3ncc(Nc4ccccc4C(F)(F)F)cc3Cl)CCOC2)c1 [(229)]

inhibition at 10 µM: 107%
Compound: O=C(N[C@@]1(C(=O)NCc2ccc(Nc3ccccc3C(F)(F)F)cc2)CCOC1)c1cccc(O)n1 [(70)]

inhibition at 10 µM: 95%
Compound: O=C(NC1(C(=O)NCc2ccc(Nc3ccccc3C(F)(F)F)cn2)CC[S+]([O-])C1)c1cncnc1 (stereo not shown) [(194)]

Ki: 47 nM
Compound: CNc1cncc(C(=O)N[C@@]2(C(=O)NCc3ncc(Nc4ccc(F)cc4C(F)(F)F)cc3Cl)CCOC2)c1 [(269)]

Ki: 402 nM
Compound: CC(C)c1ccc(Nc2ccc(CNC(=O)C3(NC(=O)c4cncnc4)CC3)nc2)c(C(F)(F)F)c1 [(204)]

Ki: 33 nM
Compound: Cc1ncc(C(=O)N[C@@]2(C(=O)NCc3ncc(Nc4ccccc4C(F)(F)F)cc3C)CCOC2)cn1 [(366)]

Ki: 69 nM
Compound: CNc1ncc(C(=O)N[C@@]2(C(=O)NCc3ccc(Nc4ccc(Cl)cc4C(F)(F)F)cc3)CCOC2)cn1 [(323)]

Ki: 126 nM
inhibition at 10 µM: 97%
Compound: Nc1cncc(C(=O)NC2(C(=O)NCc3ccc(Nc4ccc(F)cc4C(F)(F)F)cn3)CC2)n1 [(144)]

inhibition at 10 µM: 54%
Compound: O=C(NC1(C(=O)NCc2ccc(Nc3cccc(Cl)c3Cl)cc2)CC1)c1cncnc1 [(1)]

Ki: 17 nM
Compound: Cc1ncc(C(=O)N[C@@]2(C(=O)NCc3ncc(Nc4ccc(Cl)cc4C(F)(F)F)cc3C)CCOC2)cn1 [(345)]

Ki: 48 nM
Compound: Cc1cc(Nc2ccc(Cl)cc2C(F)(F)F)cnc1CNC(=O)[C@]1(NC(=O)c2cncc(N)c2)CCOC1 [(346)]

Ki: 15 nM
Compound: COc1ncc(C(=O)N[C@@]2(C(=O)NCc3ncc(Nc4ccc(Cl)cc4C(F)(F)F)cc3F)CCOC2)cn1 [(314)]

Ki: 184 nM
Compound: Nc1ccc(C(=O)N[C@@]2(C(=O)NCc3ccc(Nc4ccc(F)cc4C(F)(F)F)cc3)CCOC2)cn1 [(309)]

Ki: 7.3 nM
Compound: CCOc1ncc(C(=O)NC2(C(=O)NCc3ccc(Nc4ccc(Cl)cc4C(F)(F)F)cn3)CC2)cn1 [(390)]

inhibition at 10 µM: 87%
Compound: COc1cc(OC)cc(C(=O)N[C@@]2(C(=O)NCc3ccc(Nc4ccccc4C(F)(F)F)cc3)CCOC2)c1 [(103)]

Ki: 97 nM
Compound: CNc1cc(C(=O)NC2(C(=O)NCc3ccc(Nc4ccc(F)cc4C(F)(F)F)cn3)CC2)cnn1 [(227)]

Ki: 12 nM
inhibition at 10 µM: 106%
Compound: Nc1cncc(C(=O)NC2(C(=O)NCc3ccc(Nc4ccc(F)cc4C(F)(F)F)cn3)CC2)c1 [(142)]

Ki: 40 nM
Compound: Cc1ncc(C(=O)N[C@@]2(C(=O)NCc3ccc(Nc4c(F)cccc4C(F)(F)F)cc3F)CCOC2)cn1 [(291)]

Continued, compound first:

Compound: CC(C)Nc1ncc(C(=O)NC2(C(=O)NCc3ccc(Nc4ccc(Cl)cc4C(F)(F)F)cn3)CC2)cn1 [(382)]
Ki: 6.8 nM

Compound: O=C(NC1(C(=O)NCc2ncc(Nc3c(F)cccc3C(F)(F)F)cc2F)CC1)c1cccc(O)n1 [(136)]
Ki: 42 nM
inhibition at 10 µM: 104%

Compound: O=C(NC1(C(=O)NCc2ccc(Nc3ccc(F)cc3C(F)(F)F)cn2)CC1)c1ccc(C(F)(F)F)nc1 [(254)]
Ki: 257 nM

Compound: COc1ncc(C(=O)NC2(C(=O)NCc3ccc(Nc4ccc(Cl)cc4C(F)(F)F)cn3)CC2)cn1 [(146)]
Ki: 7.6 nM
inhibition at 10 µM: 107%

Compound: O=C(N[C@@]1(C(=O)NCc2ccc(Nc3ccc(Cl)cc3C(F)(F)F)cc2)CCOC1)c1cnc2[nH]ccc2c1 [(388)]
Ki: 386 nM

Compound: O=C(N[C@@]1(C(=O)NCc2ccc(Nc3c(F)cccc3C(F)(F)F)cn2)CCOC1)c1cncnc1 [(46)]
Ki: 290 nM
inhibition at 10 µM: 88%

Compound: Cc1ncc(C(=O)NC2(C(=O)NCc3ccc(Nc4ccc(F)cc4C(F)(F)F)cn3)CC2)cn1 [(232)]
Ki: 5.6 nM

Compound: O=C(N[C@@]1(C(=O)NCc2ncc(Nc3ccc(Cl)cc3C(F)(F)F)cc2Cl)CCOC1)c1cncc(O)c1 [(286)]
Ki: 36 nM

Compound: CC(NC(=O)[C@]1(NC(=O)c2cncnc2)CCOC1)c1ccc(Nc2ccc(Cl)cc2C(F)(F)F)cn1 (stereo partly shown) [(163)]
Ki: 288 nM
inhibition at 10 µM: 87%

Compound: O=C(NC1(C(=O)NCc2ccc(Nc3ccc(F)cc3C(F)(F)F)cn2)CC1)c1cnc(N2CCCCC2)nc1 [(248)]
Ki: 276 nM

Compound: O=C(N[C@@]1(C(=O)NCc2ncc(Nc3ccc(F)cc3C(F)(F)F)cc2F)CCOC1)c1cncnc1 [(153)]
Ki: 9.7 nM
inhibition at 10 µM: 106%

Compound: N#CC1(C(=O)NC2(C(=O)NCc3ccc(Nc4ccc(Cl)cc4C(F)(F)F)cn3)CC2)CC1 [(367)]
Ki: 508 nM

Compound: Nc1ccc(C(=O)N[C@@]2(C(=O)NCc3ncc(Nc4ccc(Cl)cc4C(F)(F)F)cc3F)CCOC2)cn1 [(293)]
Ki: 65 nM

Compound: CN(C)CCCCC(=O)NC1(C(=O)NCc2ccc(Nc3ccccc3C(F)(F)F)cc2)CC1 [(10)]
inhibition at 10 µM: 58%

Compound: O=C(NC1(C(=O)NCc2ccc(Nc3ccccc3C(F)(F)F)cc2)CC1)c1cncnc1 [(4)]
inhibition at 10 µM: 109%

Compound: O=C(NC1(C(=O)NCc2ncc(Nc3ccc(F)cc3C(F)(F)F)cc2F)CC1)c1cncnc1 [(151)]
Ki: 1.8 nM
inhibition at 10 µM: 107%

Compound: O=C(Cc1ccccn1)N[C@@]1(C(=O)NCc2ccc(Nc3ccccc3C(F)(F)F)cc2)CCOC1 [(59)]
inhibition at 10 µM: 22%

Compound: O=C(N[C@@]1(C(=O)NCc2ccc(Nc3ccc(Cl)cc3C(F)(F)F)cc2)CCOC1)c1cncs1 [(336)]
Ki: 567 nM

Compound: O=C(N[C@@]1(C(=O)NCc2ncc(Nc3ccc(F)cc3C(F)(F)F)cc2Cl)CCOC1)c1cnc2[nH]cnc2c1 [(220)]
Ki: 15 nM

Compound: Cc1ncc(C(=O)N[C@@]2(C(=O)NCc3ccc(Nc4ccccc4C(F)(F)F)cc3)CCOC2)c(C)n1 [(80)]
inhibition at 10 µM: 88%

Compound: Cc1ccc(Nc2ccc(CNC(=O)C3(NC(=O)c4cncnc4)CC3)nc2)c(Cl)c1 [(189)]
Ki: > 500 nM
inhibition at 10 µM: 96%

Compound: COc1ccc(C(=O)N[C@@]2(C(=O)NCc3ccc(Nc4ccccc4C(F)(F)F)cc3)CCOC2)cc1 [(99)]
inhibition at 10 µM: 96%

Compound: O=C(N[C@@]1(C(=O)NCc2ccc(Nc3ccccc3C(F)(F)F)cc2)CCOC1)c1cnco1 [(85)]
inhibition at 10 µM: 93%

Compound: O=C(N[C@@]1(C(=O)NCc2ccc(Nc3ccccc3C(F)(F)F)cc2)CCOC1)C1CCOCC1 [(65)]
inhibition at 10 µM: 76%

Compound: O=C(NC1(C(=O)NCc2ncc(Nc3ccc(Br)cc3C(F)(F)F)cc2F)CC1)c1cncnc1 [(179)]
inhibition at 10 µM: 101%

Compound: COC(=O)c1ccc(Nc2ccc(CNC(=O)C3(NC(=O)c4cncnc4)CC3)nc2)c(C(F)(F)F)c1 [(196)]
Ki: > 500 nM
inhibition at 10 µM: 82%

Compound: Nc1cncc(C(=O)NC2(C(=O)NCc3ccc(Nc4ccccc4C(F)(F)F)cc3)COC2)c1 [(273)]
Ki: 141 nM
